{"source": "patent US7524887B2", "about": "“2-amino-1,3-propanediol compounds for the treatment of acute pain” (Sanofi-Aventis Deutschland GmbH, priority 2003, dated 2009)", "key": {"[1]": {"tested_on": "Sprague Dawley rats (formalin model of acute pain)", "assay": "Formalin test after interperitoneal injection of compound 1", "format": "in vivo, rat", "settings": "for Mean flinches in 5 min interval: 1 mg/kg interperitoneally in PEG 3 hours prior to formalin, n = 5 rats", "description": "Animals: Male Sprague Dawley rats weighing 300-350 g were purchased from Charles River Wiga GmbH (Sulzfeld, Germany). The animals had free access to food and water prior to the experiments. They were maintained in climate- and light-controlled rooms (24+0.5° C.). Each animal was used at one occasion only. In all experiments the ethics guidelines for investigations in conscious animals were obeyed and the procedures were approved by the local Ethics Committee. Formalin test: The formalin assay was performed in a dedicated room with restriction on sound level and activity. 2-amino-2-[2-(4-octylphenyl)ethyl]-1,3-propanediol hydrochloride (compound 1) was dissolved in polyethylene-glycol (PEG) at a concentration of 1 mg/ml and injected interperitoneally (1 mg/kg) 3 hours prior to the formalin tests were performed with compound 1. 50 μl of a 5% formaldehyde solution was injected subcutaneously (s.c.) into the dorsal surface of one hind paw. Rats were placed into a plexiglas chamber surrounded by mirrors to allow an unobstructed view of the paws. Flinches were counted in one-minute intervals up to 60 min starting right after formalin injection. Flinches of 5 min intervals were summarized as mean flinches per minute +SEM. Statistical analysis was performed using the student's t-test (*p<0.04)."}, "[2]": {"tested_on": "Sprague Dawley rats (formalin model of acute pain)", "assay": "Formalin test after intrathecal application of S1P", "format": "in vivo, rat", "settings": "for Mean flinches in 5 min interval: 20 μl of 10 μM S1P intrathecal 15 min prior to formalin, mean of six animals", "description": "The analgesic effect of sphingosine-1-phosphate (S1P) was determined by intrathecal application to the spinal cord by:\nWild type Sprague Dawley rats were purchased from Charles River Wiga GmbH (Sulzfeld, Germany). The animals had free access to food and water prior to the experiments. They were maintained in climate- and light-controlled rooms (24+0.5° C.). Each animal was used at one occasion only. In all experiments the ethics guidelines for investigations in conscious animals were obeyed, and the procedures were approved by the local Ethics Committee.\nRats were anesthetized with ketamine (60 mg/kg i.p.) and midazolam (0.5 to 1 mg/kg i.p.). The skin was incised above the vertebral column from vertebrae Th13 up to L3. Muscle tissue around L2-3 was cleared away. The processus spinosus of L3 was removed and a laminectomy was done at L2. Polyethylene catheters (ID 0.28 mm, OD 0.61 mm) were then inserted into the peridural space so that the tip of the catheter reached Th9-10. The catheter was fixed with cyanacrylate glue and was externalized in the neck region and the skin was sutured.\nThree days after surgery rats were placed into a “freely moving system” (CMA, Stockholm, Sweden) 20 μl of 10 μM S1P, purchased from Tocris (Ellisville, Mo.), were infused through the catheter.\nWithin 15 min after stopping the infusion the formalin test was performed. 50 μL of a 5% formaldehyde solution were injected subcutaneously (s. c.) into the dorsal surface of one hind paw. Flinches were counted in one-minute intervals up to 60 min starting right after formalin injection. Flinches of 5 min intervals were summarized as mean flinches per minute. To compare the nociceptive behavior between groups the sum of flinches during the one-hour observation period were submitted to the Students t-test.\nS1P was dissolved in DMSO to a final concentration of 2.5 mM and then diluted 1:250 in PBS. 20 μl of 10 μM S1P or 20 μl 0.1 M phosphate buffered saline, pH 7.2 (PBS,) in DMSO were given to adult rats by intrathecal application 15 minutes prior to the formalin injection. Then, flinches were counted in 5 minutes intervals over a period of 60 minutes."}}, "data": [{"smiles": "CCCCCCCCc1ccc(CCC(N)(CO)CO)cc1.Cl", "note": "[Compound 1, 2-amino-2-[2-(4-octylphenyl)ethyl]-1,3-propanediol hydrochloride]", "values": [{"measurement": "Number of nociceptive responses for phase 2A compared to the control animals", "setting": "[1]; phase 2A = 20 to 35 minutes after formalin injection, 1 mg/kg interperitoneally, student's t-test", "value": "significant decrease"}, {"measurement": "Mean flinches in 5 min interval", "setting": "[1]; time 5 min after formalin", "value": 85.4}, {"measurement": "Mean flinches in 5 min interval", "setting": "[1]; time 10 min after formalin", "value": 41.2}, {"measurement": "Mean flinches in 5 min interval", "setting": "[1]; time 15 min after formalin", "value": 33.6}, {"measurement": "Mean flinches in 5 min interval", "setting": "[1]; time 20 min after formalin", "value": 29.6}, {"measurement": "Mean flinches in 5 min interval", "setting": "[1]; time 25 min after formalin", "value": 31.6}, {"measurement": "Mean flinches in 5 min interval", "setting": "[1]; time 30 min after formalin", "value": 51.4}, {"measurement": "Mean flinches in 5 min interval", "setting": "[1]; time 35 min after formalin", "value": 49.2}, {"measurement": "Mean flinches in 5 min interval", "setting": "[1]; time 40 min after formalin", "value": 48.0}, {"measurement": "Mean flinches in 5 min interval", "setting": "[1]; time 45 min after formalin", "value": 48.6}, {"measurement": "Mean flinches in 5 min interval", "setting": "[1]; time 50 min after formalin", "value": 39.8}, {"measurement": "Mean flinches in 5 min interval", "setting": "[1]; time 55 min after formalin", "value": 42.6}, {"measurement": "Mean flinches in 5 min interval", "setting": "[1]; time 60 min after formalin", "value": 42.2}]}, {"smiles": "CCCCCCCCCCCCC/C=C/[C@@H](O)[C@@H](N)COP(=O)(O)O", "note": "[Compound S1P, sphingosine-1-phosphate]", "values": [{"measurement": "Number of nociceptive responses for phase 2A compared to PBS/DMSO-treated animals", "setting": "[2]; phase 2A = 20 to 35 minutes after formalin injection, 20 μl of 10 μM S1P intrathecal", "value": "significant decrease"}, {"measurement": "Mean flinches in 5 min interval", "setting": "[2]; time 5 min after formalin", "value": 60.9}, {"measurement": "Mean flinches in 5 min interval", "setting": "[2]; time 10 min after formalin", "value": 24.6}, {"measurement": "Mean flinches in 5 min interval", "setting": "[2]; time 15 min after formalin", "value": 12.7}, {"measurement": "Mean flinches in 5 min interval", "setting": "[2]; time 20 min after formalin", "value": 17.1}, {"measurement": "Mean flinches in 5 min interval", "setting": "[2]; time 25 min after formalin", "value": 19.6}, {"measurement": "Mean flinches in 5 min interval", "setting": "[2]; time 30 min after formalin", "value": 24.7}, {"measurement": "Mean flinches in 5 min interval", "setting": "[2]; time 35 min after formalin", "value": 31.4}, {"measurement": "Mean flinches in 5 min interval", "setting": "[2]; time 40 min after formalin", "value": 41.9}, {"measurement": "Mean flinches in 5 min interval", "setting": "[2]; time 45 min after formalin", "value": 49.3}, {"measurement": "Mean flinches in 5 min interval", "setting": "[2]; time 50 min after formalin", "value": 41.3}, {"measurement": "Mean flinches in 5 min interval", "setting": "[2]; time 55 min after formalin", "value": 49.0}, {"measurement": "Mean flinches in 5 min interval", "setting": "[2]; time 60 min after formalin", "value": 38.0}]}]}
